From the NIST ThermoML archive (doi:10.1007/s10765-012-1371-1)
Numbers after ± are expanded uncertainties.

Tests used:
[1] = 101 kPa, Liquid
[2] = xn = mol fraction of the nth substance listed; conditions: 101 kPa, Liquid

CC(C)CCl [1-chloro-2-methylpropane]
[1]
Conditions	viscosity [mPa·s]
283.15 K	0.5155 ± 0.0096
288.15 K	0.4833 ± 0.0092
293.15 K	0.454 ± 0.0087
298.15 K	0.4296 ± 0.0083
303.15 K	0.4112 ± 0.008
308.15 K	0.3921 ± 0.0078
313.15 K	0.3726 ± 0.0075

CC(C)CCl [1-chloro-2-methylpropane] + CCCCOCC
[2], x1 = 1
Conditions	viscosity [mPa·s]
283.15 K	0.5155 ± 0.0096
288.15 K	0.4833 ± 0.0092
293.15 K	0.454 ± 0.0087
298.15 K	0.4296 ± 0.0083
303.15 K	0.4112 ± 0.008
308.15 K	0.3921 ± 0.0078
313.15 K	0.3726 ± 0.0075

CCCCCl [1-chlorobutane]
[1]
Conditions	viscosity [mPa·s]
283.15 K	0.4993 ± 0.0094
288.15 K	0.4701 ± 0.009
293.15 K	0.4433 ± 0.0085
298.15 K	0.4214 ± 0.0082
303.15 K	0.405 ± 0.0079
308.15 K	0.3885 ± 0.0077
313.15 K	0.3642 ± 0.0074

CCCCCl [1-chlorobutane] + CCCCOCC
[2], x1 = 1
Conditions	viscosity [mPa·s]
283.15 K	0.4993 ± 0.0094
288.15 K	0.4701 ± 0.009
293.15 K	0.4433 ± 0.0085
298.15 K	0.4214 ± 0.0082
303.15 K	0.405 ± 0.0079
308.15 K	0.3885 ± 0.0077
313.15 K	0.3642 ± 0.0074

CCC(C)Cl (configuration not stated) [2-chlorobutane]
[1]
Conditions	viscosity [mPa·s]
283.15 K	0.4631 ± 0.0088
288.15 K	0.4365 ± 0.0084
293.15 K	0.4167 ± 0.0081
298.15 K	0.3993 ± 0.0079
303.15 K	0.38 ± 0.0076
308.15 K	0.3615 ± 0.0073
313.15 K	0.3443 ± 0.0071

CCC(C)Cl (configuration not stated) [2-chlorobutane] + CCCCOCC
[2], x1 = 1
Conditions	viscosity [mPa·s]
283.15 K	0.4631 ± 0.0088
288.15 K	0.4365 ± 0.0084
293.15 K	0.4167 ± 0.0081
298.15 K	0.3993 ± 0.0079
303.15 K	0.38 ± 0.0076
308.15 K	0.3615 ± 0.0073
313.15 K	0.3443 ± 0.0071

COC(C)(C)C [2-methoxy-2-methylpropane]
[1]
Conditions	viscosity [mPa·s]
283.15 K	0.3897 ± 0.0078
288.15 K	0.364 ± 0.0074
293.15 K	0.3482 ± 0.0071
298.15 K	0.3327 ± 0.0069
303.15 K	0.3152 ± 0.0066
308.15 K	0.2994 ± 0.0064
313.15 K	0.2846 ± 0.0062

COC(C)(C)C [2-methoxy-2-methylpropane] + CC(C)CCl
[2], x2 = 0
Conditions	viscosity [mPa·s]
283.15 K	0.3897 ± 0.0078
288.15 K	0.364 ± 0.0074
293.15 K	0.3482 ± 0.0071
298.15 K	0.3327 ± 0.0069
303.15 K	0.3152 ± 0.0066
308.15 K	0.2994 ± 0.0064
313.15 K	0.2846 ± 0.0062

COC(C)(C)C [2-methoxy-2-methylpropane] + CCC(C)Cl
[2], x2 = 0
Conditions	viscosity [mPa·s]
283.15 K	0.3897 ± 0.0078
288.15 K	0.364 ± 0.0074
293.15 K	0.3482 ± 0.0071
298.15 K	0.3327 ± 0.0069
303.15 K	0.3152 ± 0.0066
308.15 K	0.2994 ± 0.0064
313.15 K	0.2846 ± 0.0062

COC(C)(C)C [2-methoxy-2-methylpropane] + CCCCCl
[2], x2 = 0
Conditions	viscosity [mPa·s]
283.15 K	0.3897 ± 0.0078
288.15 K	0.364 ± 0.0074
293.15 K	0.3482 ± 0.0071
298.15 K	0.3327 ± 0.0069
303.15 K	0.3152 ± 0.0066
308.15 K	0.2994 ± 0.0064
313.15 K	0.2846 ± 0.0062

CCCCOCC [butyl ethyl ether]
[1]
Conditions	viscosity [mPa·s]
283.15 K	0.4796 ± 0.0091
288.15 K	0.4509 ± 0.0087
293.15 K	0.4242 ± 0.0083
298.15 K	0.399 ± 0.0079
303.15 K	0.3756 ± 0.0075
308.15 K	0.356 ± 0.0072
313.15 K	0.3416 ± 0.007
